# Measured values: publication PMC7281206, “Cysteine Cathepsins Inhibition Affects Their Expression and Human Renal Cancer Cell Phenotype” (Cancers, 2020)
# *: point of attachment. CH2F = FC*
# Columns and labels:
# human recombinant CtsL = test: Fluorescent protease activity assay, recombinant CtsL; type: biochemical; conditions: 20 nM CtsL, 50 μM Ac-PLVQ-AMC, inhibitor 2 μM; 0.1 M sodium acetic buffer pH 4.6, 12 min, Ex/Em 353/442 nm
# Procedure: Ac-PLVE-FMK and Ac-VLPE-FMK inhibitory properties were evaluated against human recombinant CtsL and B. These recombinant enzymes were expressed in E. coli via plasmid transformation and further purification, using nickel-nitrilotriacetic acid (Ni-NTA) sepharose. Gel zymography assay was used to provide a preliminary evaluation of the ability of these recombinant proteins to degrade the gelatin substrate previously embedded in the gel (Supplementary Figure S1). Following Coomassie staining, the Cts were detectable as single bands. As expected, a translucent area was evident, due to the substrate digestion in the proximity of the proteins. Then, the recombinant proteins were tested for their ability to digest the Triticain-α substrate Ac-PLVQ via fluorescent protease activity assay, previously optimized by our group. This probe was conjugated with the fluorogenic chromophore 7-amino-4-methylcoumarin (Ac-PLVQ-AMC). After proteolytic cleavage, it emits a detectable fluorescent signal.
# Total RNA extract from retinoblastoma […] cells was used to obtain cDNA. A pair of oligonucleotides ([…] and […]) was used for the amplification of DNA fragment containing CtsB, the product of which was ligated into pET15b (Merck Millipore, Billerica, MA, USA) using NdeI and XhoI. DNA fragment containing CtsL was amplified using a pair of oligonucleotides ([…] and […]) and ligated into pET28a (+) (Merck Millipore, Billerica, MA, USA) using NheI and HindIII. […]
# The activity of recombinant CtsL and B was detected by the hydrolysis of the fluorogenic substrate Ac-Pro-Leu-Val-Gln- 7-amino-4-methylcoumarin (AMC) (Pepmic Suzhou Jiangsu, China). […] The substrate was added to a final concentration of 50 μM, and its hydrolysis was continuously measured for 12 min using a CLARIOstar® Plus plate reader (BMG Labtech Ortenberg Baden-Württemberg, Germany) at excitation and emission wavelengths of 353 and 442 nm, respectively.
# A498 cells = test: Cell viability/proliferation (MTT), A498; type: cell-based, human; conditions: 2.5–250 μM; for Cell viability: 72 h; for Effect on cell proliferation: within 48 h
# Procedure: Figure 3 The effect of the peptide inhibitors on human 769-P and A498 renal cancer cell proliferation and proteolytic activity. (a) 769-P and (b) A498 cells were treated with increasing doses of Ac-PLVE-FMK (red bars) and Ac-VLPE-FMK (blue bars) (2.5–250 μM). Cell proliferation was measured after 24, 48, and 72 h via MTT (3-(4,5-dimethylthiazol-2-yl)-2,5-diphenyltetrazolium bromide) assay. Data represent the mean (±S.D.) of at least three independent experiments, each performed in triplicate. (c) Fluorescence microscopy evaluation and quantification of the cell proteolytic activity in 769-P and (d) A498 cells towards the fluorogenic substrate Ac-PLVQ-AMC in the absence or presence of Ac-PLVE-FMK and Ac-VLPE-FMK. The cells were seeded in a 96-well plate and after exposure to the peptides for 30 min prior incubation with the fluorescent substrate Ac-PLVQ-AMC for 10 min. Data are expressed as mean (±S.D.), and significance was calculated through one-way ANOVA followed by Dunnet’s test. * = p < 0.05, ** = p < 0.01, *** = p < 0.001.
# The human renal cancer cell line lines […], A498 were obtained from Dr. Vadim Pokrovsky (purchased from American Type Culture Collection). The cells were cultured in RPMI 1640, supplemented with 10% fetal bovine serum and 1% mixture of antibiotics penicillin-streptomycin (all from Gibco, Waltham, MA, USA) at 5% CO2 and 37 °C in a humidified chamber. Cells were grown to confluence and harvested by trypsinization, using a 0.25 mg/mL trypsin/EDTA solution (ThermoFisher, Carlsbad, CA, USA) and resuspended in the fresh culture medium. Viable cells were enumerated on the Countess II FL Automated Cell Counter (ThermoFisher, Waltham, MA, USA), following Trypan Blue staining. The cell lines were tested for mycoplasma contamination regularly, using the Molecular Probes™ MycoFluor Mycoplasma Detection Kit (ThermoFisher, Waltham, MA, USA).
# The cell number was evaluated by counting viable cells using the MTT (3-(4,5-dimethylthiazol-2-yl)-2,5-diphenyltetrazolium bromide) colorimetric assay. A total of 2 × 10^4 cells/well were seeded on independent 96-well plates for each time point (0, 24, 48, and 72 h), with five replicates and treated with two inhibitors (2.5–250 μM). Then, 10 µL of the MTT reagent was added to each well, and cells were incubated for another 5 h. Next, the absorbance value was measured using a CLARIOstar® Plus plate reader (BMG Labtech, Ortenberg, Germany) at 490 nm. Triplicate wells were assayed, and S.D.s were determined.
# [1] = tested on: 769-P cells (endolysosomal compartment); test: LysoTracker red fluorescence, 769-P; type: cell-based, human; conditions: 20 μM; 48 h; 75 nM LysoTracker red, 1 h, Ex/Em 570/600
# Procedure: First, 1.5 × 10^4 769-P or A498 cells were seeded in 96-well plates in full medium. The day after the cells were treated with the peptides for 3 consecutive days to establish 24, 48, and 72 h groups of treatment. LysoTracker Red fluorescence intensity was measured via microplate reader following the protocols described in [75] and applying Ex/Em = 570/600. The cells were incubated with 75 nM of LysoTracker red for 1 h. […]
# Figure S6. The effect of the peptide inhibitors on human 769‐P and A498 renal cancer cell on
# lysosomes integrity. (a) 769‐P and (b) A498 cells were treated with increasing doses of Ac‐PLVE‐FMK
# (red bars) and Ac‐VLPE‐FMK (blue bars) (2.5–250 μM). NR uptake was measured after 24, 48, and 72
# h via MTT assay. (c) LysoTracker red evaluation in 769‐P and (d) A498 cells after 24, 48, and 72 h with
# the inhibitors (20 μM). Data represent the mean (± S.D.) of at least three independent experiments,
# each performed in triplicate. […]
Substance,Inhibition of Ac-PLVQ-AMC cleavage (fluorescent signal) (human recombinant CtsL),Cell viability (A498 cells),Effect on cell proliferation (A498 cells),LysoTracker red fluorescence [1]
Ac-PLVE-CH2F [Ac-PLVE-FMK],the intensity of the fluorescent signal was significantly affected,"cell viability increased, reaching values not significantly different from the control cells",cytostatic properties on both cell lines only within 48 h of treatment,slightly increasing
Ac-VLPE-CH2F [Ac-VLPE-FMK],the intensity of the fluorescent signal was significantly affected,"cell viability increased, reaching values not significantly different from the control cells",cytostatic properties on both cell lines only within 48 h of treatment,slightly increasing
